Measurements published in PubChem BioAssay AID743023 (Sanford-Burnham Center for Chemical Genomics, 2013).
Calls of active or inactive are those of the source.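 How the source made its calls: active means mean IC50 of 15000 nM or lower against heat shock reporter, a sign of off-target artifact; inactive means the rest.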

system: C. elegans VP596 hsp-16.2 GFP/RFP heat-shock reporter fluorescence; assay: inhibitors of hsp-16.2 induction by heat – whole organism, C. elegans VP596, GFP/RFP ratio, round 3, counter-screen for SKN-1 inhibitor project, SAR follow-up (AID 743023)

Row | Compound | IC50
1 | COc1ccc(-c2nc(-c3ccncc3)sc2C)cc1 | > 64 µM (inactive)
2 | c1ccc(-c2csc(-c3cccnc3)n2)cc1 | > 64 µM (inactive)
3 | COc1ccc(-c2csc(-c3ccccn3)n2)cc1 | > 64 µM (inactive)
4 | Fc1ccc(-c2csc(-c3cccnc3)n2)cc1 | > 64 µM (inactive)
5 | Clc1ccc(-c2csc(C3CCNCC3)n2)cc1 | > 64 µM (inactive)
6 | COc1ccc(-c2csc(C3CCNCC3)n2)cc1 | > 64 µM (inactive)
7 | COc1cccc(-c2csc(-c3ccncc3)n2)c1 | > 64 µM (inactive)
8 | c1cc(-c2nc(C3CC3)cs2)ccn1 | > 64 µM (inactive)
9 | c1ccc(-c2nc(-c3cccnc3)cs2)cc1 | > 64 µM (inactive)
10 | Clc1ccc(-c2csc(-c3ccncc3)n2)cc1 | > 64 µM (inactive)
11 | COc1ccc(-c2csc(-c3ccncc3)n2)cc1 | > 64 µM (inactive)
12 | c1cc(-c2nc(-c3nccs3)cs2)ccn1 | > 64 µM (inactive)
13 | Fc1ccc(-c2csc(-c3ccccc3)n2)cc1 | > 64 µM (inactive)
14 | Cc1sc(C2CCNCC2)nc1-c1ccccc1 | > 64 µM (inactive)
15 | Cc1sc(-c2ccncc2)nc1-c1ccc(F)cc1 | > 64 µM (inactive)
16 | Clc1cccc(-c2csc(-c3ccncc3)n2)c1 | > 64 µM (inactive)
17 | CCCc1cc(-c2nc(-c3ccc(NS(C)(=O)=O)cc3)cs2)ccn1 | > 64 µM (inactive)
18 | Clc1ccc(-c2csc(-c3ccccc3)n2)cc1 | > 64 µM (inactive)
19 | Fc1ccc(-c2csc(C3CCNCC3)n2)cc1 | > 64 µM (inactive)
20 | Clc1ccc(-c2csc(-c3cccnc3)n2)cc1 | > 64 µM (inactive)
21 | c1ccc(-c2csc(-c3ccccn3)n2)cc1 | > 64 µM (inactive)
22 | Cc1ccc(-c2csc(-c3ccccc3)n2)cc1 | > 64 µM (inactive)
23 | Clc1ccc(-c2csc(-c3ccncc3)n2)cc1Cl | > 64 µM (inactive)
24 | c1ccc(-c2csc(C3CCNCC3)n2)cc1 | > 64 µM (inactive)

Row | Compound | IC50
25 | Cc1cccc(-c2csc(-c3ccncc3)n2)c1 | > 64 µM (inactive)
26 | Cc1ccc(-c2csc(-c3cccnc3)n2)cc1 | > 64 µM (inactive)
27 | Clc1ccc(-c2csc(-c3ccccn3)n2)cc1 | > 64 µM (inactive)
28 | Fc1ccc(-c2csc(-c3ccccn3)n2)cc1 | > 64 µM (inactive)
29 | Clc1ccc(-c2csc(-c3ccncc3)n2)c(Cl)c1 | > 64 µM (inactive)
30 | COc1ccccc1-c1csc(-c2ccncc2)n1 | > 64 µM (inactive)
31 | Cc1ccc(-c2csc(-c3ccccn3)n2)cc1 | > 64 µM (inactive)
32 | COc1ccc(-c2csc(-c3ccccc3)n2)cc1 | > 64 µM (inactive)
33 | N#Cc1ccc(-c2csc(-c3ccncc3)n2)cc1 | > 64 µM (inactive)
34 | Cc1ccc(-c2nc(-c3ccncc3)sc2C)cc1 | > 64 µM (inactive)
35 | Clc1ccccc1-c1csc(-c2ccncc2)n1 | > 64 µM (inactive)
36 | Fc1ccc(-c2csc(-c3ccncc3)n2)cc1 | > 64 µM (inactive)
37 | Cc1sc(-c2ccncc2)nc1-c1ccccc1 | > 64 µM (inactive)
38 | c1ccc(-c2csc(-c3ccncc3)n2)cc1 | > 64 µM (inactive)
39 | CC(C)(C)c1csc(-c2ccncc2)n1 | > 64 µM (inactive)
40 | Cc1csc(-c2ccncc2)n1 | > 64 µM (inactive)
41 | Cc1sc(-c2ccncc2)nc1-c1ccc(Cl)cc1 | > 64 µM (inactive)
42 | Cc1ccc(-c2csc(-c3ccncc3)n2)cc1 | > 64 µM (inactive)
43 | COc1ccc(-c2csc(-c3cccnc3)n2)cc1 | > 64 µM (inactive)
44 | Cc1ccc(-c2csc(C3CCNCC3)n2)cc1 | > 64 µM (inactive)
45 | COC(=O)c1ccc(-c2csc(-c3ccncc3)n2)cc1 | > 64 µM (inactive)
46 | CCCc1cc(-c2nc(-c3ccc(C)cc3)cs2)ccn1 | > 64 µM (inactive)
47 | Cc1ccccc1-c1csc(-c2ccncc2)n1 | > 64 µM (inactive)
48 | FC(F)(F)c1ccc(-c2csc(-c3ccncc3)n2)cc1 | > 64 µM (inactive)
